pIC50: −log10 of the molar value.
The molecules below were run against T1, human CCR6 (Homo sapiens, UniProt P51684) (assay: Migration assay (chemotaxis, ChemoTX)). Conditions: hCCR6-transfected Ba/F3 cells in human serum, migration to recombinant human CCL20 10 nM, 37° C. 45 minutes; read-out: Potency (IC50 value in the migration assay).
T1 construct: expressed in transfected cells; host or cells: Ba/F3 cells (mouse pro-B line)
T1 sequence (P51684 1-374): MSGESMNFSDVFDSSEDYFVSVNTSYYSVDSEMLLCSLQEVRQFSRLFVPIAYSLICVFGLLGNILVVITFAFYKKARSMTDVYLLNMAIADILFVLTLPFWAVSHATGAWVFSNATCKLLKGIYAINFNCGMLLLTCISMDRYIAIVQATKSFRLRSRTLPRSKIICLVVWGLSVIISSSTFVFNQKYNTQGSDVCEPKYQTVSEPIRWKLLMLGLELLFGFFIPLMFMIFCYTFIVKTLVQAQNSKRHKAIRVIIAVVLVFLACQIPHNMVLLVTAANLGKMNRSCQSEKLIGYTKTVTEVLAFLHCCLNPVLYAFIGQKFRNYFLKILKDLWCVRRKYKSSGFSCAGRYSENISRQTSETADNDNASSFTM
Format: cell-based
Source text: A chemotaxis assay can be used to determine the efficacy of potential receptor antagonists at blocking the migration mediated through chemokine receptors, such as CCR6. This assay is routinely performed using the ChemoTX® microchamber system with a 5-μm pore-sized polycarbonate membrane. Chemokine receptor-expressing cells are required for such an assay. In this case, Ba/F3 cells (Palacios et al., Nature, 309:126, 1984) transfected with the gene for human CCR6 under control of the CMV promotor were used. To begin such an assay, hCCR6-transfected Ba/F3 cells are first grown for 24 hr in medium supplemented with sodium butyrate, which increases CCR6 transcription via the CMV promotor. The prepared Ba/F3 cells, are collected by centrifugation at 400×g at room temperature, then suspended at 4 million/ml in human serum. The compound being tested is serially diluted from a maximum final concentration of 1 μM (or an equivalent volume of its solvent (DMSO)) and is then added to the cell/serum mixture. Separately, recombinant human CCL20 (MIP-3α/LARC) at its EC50 concentration (10 nM) is placed in the lower wells of the ChemoTX® plate. The 5-μm (pore size) polycarbonate membrane is placed onto the plate, and 20 μL of the cell/compound mixture is transferred onto each well of the membrane. The plates are incubated at 37° C. for 45 minutes, after which the polycarbonate membranes are removed and 5 μl of the DNA-intercalating dye CyQUANT (Invitrogen, Carlsbad, CA) is added to the lower wells. The amount of fluorescence, corresponding to the number of migrated cells, is measured using a Spectrafluor Plus plate reader (TECAN, San Jose, CA).

SMILES | pIC50
CN(C)c1ccc(-c2ccc(S(=O)(=O)N3CC[C@@H](Nc4ccc(C(F)(F)F)cn4)[C@@H](O)C3)cc2)cn1 [Compound 112] | > 9.00
CN(C)C1CN(c2ccc(-c3ccc(S(=O)(=O)N4CC[C@@H](Nc5ccc(C(F)(F)F)cn5)[C@@H](O)C4)cc3)cn2)C1 [Compound 107] | 8.00 to 9.00
CNc1cc(-c2ccc(S(=O)(=O)N3CC[C@@H](Nc4ccc(C(F)(F)F)cn4)[C@@H](O)C3)cc2)ccn1 [Compound 125] | 8.00 to 9.00
Cc1cc(-c2ccc(S(=O)(=O)N3CC[C@@H](Nc4ccc(C(F)(F)F)cn4)[C@@H](O)C3)cc2)cc2c1CN(C(=O)N(C)C)C2 [Compound 80, 6-(4-(((3S,4R)-3-hydroxy-4-((5-(trifluoromethyl)pyridin-2-yl)amino)piperidin-1-yl)sulfonyl)phenyl)-N,N,4-trimethylisoindoline-2-carboxamide] | > 9.00
O=S(=O)(c1ccc(-c2ccnc(NC3CCC3)c2)cc1)N1CC[C@@H](Nc2ccc(C(F)(F)F)cn2)[C@@H](O)C1 [Compound 140] | > 9.00
O=S(=O)(c1ccc(-c2ccc(N3CCC(O)CC3)nc2)cc1)N1CC[C@@H](Nc2ccc(C(F)(F)F)cn2)[C@@H](O)C1 [Compound 171] | > 9.00
COc1cc(-c2ccc(S(=O)(=O)N3CC[C@@H](Nc4ccc(C(F)(F)F)cn4)[C@@H](O)C3)cc2)cc2cn[nH]c(=O)c12 [Compound 79, 6-(4-(((3S,4R)-3-hydroxy-4-((5-(trifluoromethyl)pyridin-2-yl)amino)piperidin-1-yl)sulfonyl)phenyl)-8-methoxyphthalazin-1(2H)-one] | > 9.00
O=C(NO)c1cc(-c2ccc(S(=O)(=O)N3CC[C@@H](Nc4ccc(C(F)(F)F)cn4)[C@@H](O)C3)cc2)ccn1 [Compound 74, N-hydroxy-4-(4-(((3S,4R)-3-hydroxy-4-((5-(trifluoromethyl)pyridin-2-yl)amino)piperidin-1-yl)sulfonyl)phenyl)picolinamide] | 8.00 to 9.00
Cc1ccnc(C)c1-c1ccc(S(=O)(=O)N2CC[C@@H](Nc3ccc(C(F)(F)F)cn3)[C@@H](O)C2)cc1 [Compound 116] | > 9.00
Cn1cc(-c2ccc(S(=O)(=O)N3CC[C@@H](Nc4ccc(C(F)(F)F)cn4)[C@@H](O)C3)cc2)nc1C(N)=O [Compound 72, 4-(4-(((3S,4R)-3-hydroxy-4-((5-(trifluoromethyl)pyridin-2-yl)amino)piperidin-1-yl)sulfonyl)phenyl)-1-methyl-1H-imidazole-2-carboxamide] | 8.00 to 9.00
CN(C)CCN(C)c1cc(-c2ccc(S(=O)(=O)N3CC[C@@H](Nc4ccc(C(F)(F)F)cn4)[C@@H](O)C3)cc2)ccn1 [Compound 138] | > 9.00
O=S(=O)(c1ccc(-c2cc(F)c3[nH]ncc3c2)cc1)N1CC[C@@H](Nc2ccc(C(F)(F)F)cn2)[C@@H](O)C1 [Compound 120] | > 9.00
Cc1cc(C(F)(F)F)cnc1N[C@@H]1CCN(S(=O)(=O)c2ccc(-c3cnc(C(N)=O)n3C)cc2)C[C@@H]1O [Compound 83, 5-[4-[[(3S,4R)-3-hydroxy-4-[[3-methyl-5-(trifluoromethyl)-2-pyridyl]amino]-1-piperidyl]sulfonyl]phenyl]-1-methyl-imidazole-2-carboxamide] | > 9.00
N[C@H]1C[C@@H](Nc2cc(-c3ccc(S(=O)(=O)N4CC[C@@H](Nc5ccc(C(F)(F)F)cn5)[C@@H](O)C4)cc3)ccn2)C1 [Compound 129] | > 9.00
Cc1nnc(-c2cc(-c3ccc(S(=O)(=O)N4CC[C@@H](Nc5ccc(C(F)(F)F)cn5)[C@@H](O)C4)cc3)ccn2)[nH]1 [Compound 64, (3S,4R)-1-((4-(2-(5-methyl-4H-1,2,4-triazol-3-yl)pyridin-4-yl)phenyl)sulfonyl)-4-((5-(trifluoromethyl)pyridin-2-yl)amino)piperidin-3-ol] | 8.00 to 9.00
NC(=O)c1cc(-c2ccc(S(=O)(=O)N3CC[C@@H](Nc4ccc(Cl)cn4)[C@@H](O)C3)cc2)ccn1 [Compound 87] | > 9.00
CN(C)[C@H]1C[C@@H](Nc2ccc(-c3ccc(S(=O)(=O)N4CC[C@@H](Nc5ccc(C(F)(F)F)cn5)[C@@H](O)C4)cc3)cn2)C1 [Compound 96] | > 9.00
O=S(=O)(c1ccc(-c2ccnc(N3CCC(O)CC3)c2)cc1)N1CC[C@@H](Nc2ccc(C(F)(F)F)cn2)[C@@H](O)C1 [Compound 131] | > 9.00
CN1CCN(c2ccc(-c3ccc(S(=O)(=O)N4CC[C@@H](Nc5ccc(C(F)(F)F)cn5)[C@@H](O)C4)cc3)cn2)CC1 [Compound 115] | > 9.00
O=S(=O)(c1ccc(-c2ccc(N3CCC3)nc2)cc1)N1CC[C@@H](Nc2ccc(C(F)(F)F)cn2)[C@@H](O)C1 [Compound 100] | > 9.00

Further lines, results first:

pIC50 | SMILES
> 9.00 | Cc1nc2[nH]cc(C#N)c2cc1-c1ccc(S(=O)(=O)N2CC[C@@H](Nc3ccc(C(F)(F)F)cn3)[C@@H](O)C2)cc1 [Example 46, 5-(4-(((3S,4R)-3-hydroxy-4-((5-(trifluoromethyl)pyridin-2-yl)amino)piperidin-1-yl)sulfonyl)phenyl)-6-methyl-1H-pyrrolo[2,3-b]pyridine-3-carbonitrile]
> 9.00 | Cn1nc(N)c2cc(-c3ccc(S(=O)(=O)N4CC[C@@H](Nc5ccc(C(F)(F)F)cn5)[C@@H](O)C4)cc3)ccc21 [Example 49, (3S,4R)-1-((4-(3-amino-1-methyl-1H-indazol-5-yl)phenyl)sulfonyl)-4-((5-(trifluoromethyl)pyridin-2-yl)amino)piperidin-3-ol]
> 9.00 | NC(=O)N1Cc2ccc(-c3ccc(S(=O)(=O)N4CC[C@@H](Nc5ccc(C(F)(F)F)cn5)[C@@H](O)C4)cc3)cc2C1 [Example 4, 5-(4-(((3S,4R)-3-hydroxy-4-((5-(trifluoromethyl)pyridin-2-yl)amino)piperidin-1-yl)sulfonyl)phenyl)isoindoline-2-carboxamide]
> 9.00 | CNC(=O)N1Cc2ccc(-c3ccc(S(=O)(=O)N4CC[C@@H](Nc5ccc(C(F)(F)F)cn5)[C@@H](O)C4)cc3)cc2C1 [Compound 187]
> 9.00 | COc1c(-c2ccc(S(=O)(=O)N3CC[C@@H](Nc4ccc(C(F)(F)F)cn4)[C@@H](O)C3)cc2)cnc2[nH]ccc12 [Example 58, (3S,4R)-1-((4-(4-methoxy-1H-pyrrolo[2,3-b]pyridin-5-yl)phenyl)sulfonyl)-4-((5-(trifluoromethyl)pyridin-2-yl)amino)piperidin-3-ol]
> 9.00 | NC(=O)c1cccc(-c2ccc(S(=O)(=O)N3CC[C@@H](Nc4ccc(C(F)(F)F)cn4)[C@@H](O)C3)cc2)n1 [Example 7, 6-(4-(((3S,4R)-3-Hydroxy-4-((5-(trifluoromethyl)pyridin-2-yl)amino)piperidin-1-yl)sulfonyl)phenyl)picolinamide]
> 9.00 | NC(=O)c1cc(-c2ccc(S(=O)(=O)N3CC[C@@H](Nc4ccc(C(F)(F)F)cn4)[C@@H](O)C3)cc2)cnc1O [Example 51, 2-Hydroxy-5-(4-(((3S,4R)-3-hydroxy-4-((5-(trifluoromethyl)pyridin-2-yl)amino)piperidin-1-yl)sulfonyl)phenyl)nicotinamide]
8.00 to 9.00 | NC(=O)c1cncc(-c2ccc(S(=O)(=O)N3CC[C@@H](Nc4ccc(C(F)(F)F)cn4)[C@@H](O)C3)cc2)c1 [Example 27, 5-(4-(((3S,4R)-3-Hydroxy-4-((5-(trifluoromethyl)pyridin-2-yl)amino)piperidin-1-yl)sulfonyl)phenyl)nicotinamide]
> 9.00 | CN(C)C(=O)N1Cc2ccc(-c3ccc(S(=O)(=O)N4CC[C@@H](Nc5ccc(C(F)(F)F)cn5)[C@@H](O)C4)cc3)cc2C1 [Compound 186]
> 9.00 | Cc1c(-c2ccc(S(=O)(=O)N3CC[C@@H](Nc4ccc(C#N)cn4)[C@@H](O)C3)cc2)cnc2[nH]ccc12 [Example 33, 6-[[(3S,4R)-3-hydroxy-1-[4-(4-methyl-1H-pyrrolo[2,3-b]pyridin-5-yl)phenyl]sulfonyl-4-piperidyl]amino]pyridine-3-carbonitrile]
> 9.00 | O=S(=O)(c1ccc(-c2ccnc(-c3ncc[nH]3)c2)cc1)N1CC[C@@H](Nc2ccc(C(F)(F)F)cn2)[C@@H](O)C1 [Example 52, (3S,4R)-1-((4-(2-(1H-imidazol-2-yl)pyridin-4-yl)phenyl)sulfonyl)-4-((5-(trifluoromethyl)pyridin-2-yl)amino)piperidin-3-ol]
8.00 to 9.00 | Cc1cc2[nH]ncc2cc1-c1ccc(S(=O)(=O)N2CC[C@@H](Nc3ccc(C(F)(F)F)cn3)[C@@H](O)C2)cc1 [Example 25, (3S,4R)-1-((4-(6-methyl-1H-indazol-5-yl)phenyl)sulfonyl)-4-((5-(trifluoromethyl)pyridin-2-yl)amino)piperidin-3-ol]

— US12018016B2, “Aryl sulfonyl (hydroxy) piperidines as CCR6 inhibitors” (CHEMOCENTRYX, INC., priority 2021, dated 2024)
